In patent US20180353501A1 (Arvinas, Inc., priority 2017, published 2018):

How the values were obtained:
[1] = target: T1, His-p38α:PROTAC:GST-VBC ternary complex (Homo sapiens, UniProt P40337+Q16539); experiment: AlphaLISA ternary complex assay; format: binding; settings: increasing PROTAC concentrations; VBC and p38α 150 nM
T1 construct: encodes a region spanning amino acids 2-360 of the human p38α kinase; made in house; host or cells: E. coli (BL21-CodonPlus(DE3)-RIPL for p38α; BL21(DE3) for GST-VBC)
T1 sequence (Q16539 2-360 limits assumed): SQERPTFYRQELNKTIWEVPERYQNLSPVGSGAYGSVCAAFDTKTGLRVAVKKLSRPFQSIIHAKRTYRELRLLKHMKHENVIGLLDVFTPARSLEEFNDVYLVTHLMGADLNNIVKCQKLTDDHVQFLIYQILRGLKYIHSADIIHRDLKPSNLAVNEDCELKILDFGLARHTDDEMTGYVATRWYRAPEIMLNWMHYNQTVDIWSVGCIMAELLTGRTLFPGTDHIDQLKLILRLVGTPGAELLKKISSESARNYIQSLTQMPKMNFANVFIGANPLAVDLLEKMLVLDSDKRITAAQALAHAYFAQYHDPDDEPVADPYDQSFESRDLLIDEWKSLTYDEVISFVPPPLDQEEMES
T1 sequence (P40337 whole entry, the tested form may be a part): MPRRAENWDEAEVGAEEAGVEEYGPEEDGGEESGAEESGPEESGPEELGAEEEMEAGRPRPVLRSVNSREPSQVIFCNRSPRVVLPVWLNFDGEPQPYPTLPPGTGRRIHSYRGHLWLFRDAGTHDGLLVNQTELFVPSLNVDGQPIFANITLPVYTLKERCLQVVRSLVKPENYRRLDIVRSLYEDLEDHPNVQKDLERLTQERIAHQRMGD
T1 sequence (Q15370 whole entry partner, the tested form may be a part): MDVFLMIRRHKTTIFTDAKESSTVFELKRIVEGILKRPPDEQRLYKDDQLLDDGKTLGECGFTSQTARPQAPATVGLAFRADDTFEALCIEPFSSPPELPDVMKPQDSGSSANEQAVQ
T1 sequence (Q15369 whole entry partner, the tested form may be a part): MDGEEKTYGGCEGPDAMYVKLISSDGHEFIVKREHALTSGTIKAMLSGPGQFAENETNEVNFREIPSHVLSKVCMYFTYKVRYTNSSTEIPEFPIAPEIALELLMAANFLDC
Experimental: (§1) FIGS. 14A, 14B, and 14C. p38α selectivity is discriminated by ternary complex formation. (A) Only p38α incubated in the presence of exemplary compound 50 can be immunoprecipitated with GST-tagged VHL/EloB/EloC (VBC). Immobilized VBC was used as a bait to trap purified p38α in the presence of vehicle (DMSO), compound 50, or compound 46 (represented in micromolar concentrations). The rightmost lane represents a 1:25 dilution of initial input protein used in each pull-down. (B) Proximity-based AlphaLISA assay detects significant p38α:compound 50:VHL ternary complex, but no p38α:compound 46:VHL ternary complex. His-p38α and GST-VBC were incubated in the presence of increasing concentrations of compound 50 and compound 46 and the extent of ternary complex formation was assessed by excitation with incident light with 1=680 nm and capture of the emission light at 1=615 nm. Error bars represent the SD from quadruplicate experiments. […] FLAGimmunoprecipitated lysates were separated by SDS-PAGE and assessed via western blots detecting HA (Ub). […]
(§2) Following this logic, to the present disclosure seeks to describe the selectivity of exemplary compound 50 for p38α at the ternary complex level through the use of an in vitro ternary complex pull-down assay. […] Similarly, exemplary PROTACs 46 and 50 were evaluated in a proximity-based luminescence assay (AlphaLISA) to detect ternary complex formation. […]

[2] = target: T2, p38α:PROTAC:VHL ternary complex (Homo sapiens, UniProt P40337+Q16539); experiment: In vitro ternary complex pull-down with GST-VBC bait, purified p38α; format: binding
T2 construct: encodes a region spanning amino acids 2-360 of the human p38α kinase; made in house; host or cells: E. coli (BL21-CodonPlus(DE3)-RIPL for p38α; BL21(DE3) for GST-VBC)
T2 sequence (Q16539 2-360 limits assumed): as the sequence (Q16539 2-360 limits assumed) above
T2 sequence (P40337 whole entry, the tested form may be a part): as the sequence (P40337 whole entry, the tested form may be a part) above
T2 sequence (Q15370 whole entry partner, the tested form may be a part): as the sequence (Q15370 whole entry partner, the tested form may be a part) above
T2 sequence (Q15369 whole entry partner, the tested form may be a part): as the sequence (Q15369 whole entry partner, the tested form may be a part) above
Experimental: as §1, §2

SMILES | p38α:PROTAC:VHL ternary complex formation (AlphaLISA) [1] | enrichment of purified p38α on GST-VBC bait [2]
COc1cc2c(Oc3ccc(NC(=O)C4(C(=O)Nc5ccc(F)cc5)CC4)cc3F)ccnc2cc1OCCOCCOCCOc1cc(-c2scnc2C)ccc1CNC(=O)[C@@H]1C[C@@H](O)CN1C(=O)[C@H](C(C)C)N1Cc2ccccc2C1=O [compound 46] | no such ternary species is detectable | no detectable enrichment
COc1cc2c(Oc3ccc(NC(=O)C4(C(=O)Nc5ccc(F)cc5)CC4)cc3F)ccnc2cc1OCCCCOCCCCOCC(=O)N[C@H](C(=O)N1C[C@H](O)C[C@H]1C(=O)NCc1ccc(-c2scnc2C)cc1)C(C)(C)C [compound 50, N-(3-fluoro-4-((7-(4-(4-(2-(((S)-1-((2S,4R)-4-hydroxy-2-((4-(4-methylthiazol-5-yl)benzyl)carbamoyl)pyrrolidin-1-yl)-3,3-dimethyl-1-oxobutan-2-yl)amino)-2-oxoethoxy)butoxy)buto-xy)-6-methoxyquinolin-4-yl)oxy)phenyl)-N-(4-fluorophenyl)cyclopropane-1,1-dicarboxa-mide] | displays a ternary VHL:PROTAC:p38α complex | substantial enrichment of purified p38α
